# Assay results published in ChEMBL document CHEMBL3739423, “Synthesis, biological evaluation and mechanism study of a class of benzylideneindanone derivatives as novel anticancer agents” (Medchemcomm, 2015).
# Activity calls are given as the source filed them. The calls are words filed in the database; no cut-off is given here.
# Experiments:
# [1] = Antiproliferative activity against human PC3 cells after 48 hrs by MTT assay; assay type: functional; settings: PC-3, 48 h
# [2] = system: A549; test: Antiproliferative activity against human A549 cells after 48 hrs by MTT assay; assay type: functional; settings: A549, 48 h
# [3] = Antiproliferative activity against human Bel7402 cells after 48 hrs by MTT assay; assay type: functional; settings: Bel-7402, 48 h
# [4] = system: HeLa; test: Antiproliferative activity against human HeLa cells after 48 hrs by MTT assay; assay type: functional
# [5] = system: MDA-MB-231; test: Antiproliferative activity against human MDA-MB-231 cells after 48 hrs by MTT assay; assay type: functional; settings: MDA-MB-231, 48 h
# [6] = biological target: Tubulin; test: Inhibition of tubulin polymerization (unknown origin) by fluorescence analysis; assay type: protein-complex assay, Homo sapiens
# [7] = system: HeLa; test: Cell cycle arrest in human HeLa cells assessed as accumulation at G2/M phase at 0.1 microM after 48 hrs by flow cytometry; assay type: functional
# [8] = system: HeLa; test: Induction of apoptosis in human HeLa cells assessed as early apoptotic cells at 0.1 uM after 48 hrs by annexin-v-PI staining based flow cytometry (reference value: 1.44%); assay type: functional
# [9] = system: HeLa; test: Induction of apoptosis in human HeLa cells assessed as early apoptotic cells at 0.5 uM after 48 hrs by annexin-v-PI staining based flow cytometry (reference value: 1.44%); assay type: functional
# [10] = system: HeLa; test: Induction of apoptosis in human HeLa cells after 48 hrs by annexin-v-PI staining based flow cytometry; assay type: functional, cell-based
# [11] = system: HeLa; test: Induction of microtubule disruption in human HeLa cells assessed as microtubule heavily shrunk around centre of cells at 0.5 microM after 48 hrs by hoechst-33342-staining based confocal microscopy analysis; assay type: cell-based
# [12] = system: HeLa; test: Induction of apoptosis in human HeLa cells assessed as late necrotic cells at 0.5 uM after 48 hrs by annexin-v-PI staining based flow cytometry (reference value: 0.09%); assay type: functional
# [13] = system: HeLa; test: Induction of apoptosis in human HeLa cells assessed as late apoptotic cells at 0.1 uM after 48 hrs by annexin-v-PI staining based flow cytometry (reference value: 0.08%); assay type: functional
# [14] = system: HeLa; test: Induction of apoptosis in human HeLa cells assessed as viable cells at 0.5 uM after 48 hrs by annexin-v-PI staining based flow cytometry (reference value: 98.4%); assay type: functional; settings: read-out: Activity
# [15] = system: HeLa; test: Induction of apoptosis in human HeLa cells assessed as late necrotic cells at 0.1 uM after 48 hrs by annexin-v-PI staining based flow cytometry (reference value: 0.09%); assay type: functional
# [16] = system: HeLa; test: Induction of apoptosis in human HeLa cells assessed as late necrotic cells at 0.05 uM after 48 hrs by annexin-v-PI staining based flow cytometry (reference value: 0.09%); assay type: functional
# [17] = system: HeLa; test: Induction of apoptosis in human HeLa cells assessed as viable cells at 0.1 uM after 48 hrs by annexin-v-PI staining based flow cytometry (reference value: 98.4%); assay type: functional; settings: read-out: Activity
# [18] = system: HeLa; test: Induction of apoptosis in human HeLa cells assessed as late apoptotic cells at 0.05 uM after 48 hrs by annexin-v-PI staining based flow cytometry (reference value: 0.08%); assay type: functional
# [19] = system: HeLa; test: Induction of microtubule disruption in human HeLa cells assessed as destabilized microtubule network at 0.05,0.1, 0.5 microM after 48 hrs by hoechst-33342-staining based confocal microscopy analysis; assay type: cell-based
# [20] = system: HeLa; test: Cell cycle arrest in human HeLa cells assessed as accumulation at G2/M phase at 0.05 microM after 48 hrs by flow cytometry; assay type: functional
# [21] = system: HeLa; test: Cell cycle arrest in human HeLa cells assessed as accumulation at G2/M phase after 48 hrs by flow cytometry; assay type: functional, cell-based
# [22] = system: HeLa; test: Induction of apoptosis in human HeLa cells assessed as viable cells at 0.05 uM after 48 hrs by annexin-v-PI staining based flow cytometry (reference value: 98.4%); assay type: functional; settings: read-out: Activity
# [23] = system: HeLa; test: Induction of apoptosis in human HeLa cells assessed as early apoptotic cells at 0.05 uM after 48 hrs by annexin-v-PI staining based flow cytometry (reference value: 1.44%); assay type: functional
# [24] = system: HeLa; test: Induction of microtubule disruption in human HeLa cells assessed as irregular cytoplasm and chromosomes at 0.5 microM after 48 hrs by hoechst-33342-staining based confocal microscopy analysis; assay type: cell-based
# [25] = system: HeLa; test: Cell cycle arrest in human HeLa cells assessed as accumulation at G2/M phase at 0.5 microM after 48 hrs by flow cytometry; assay type: functional
# [26] = system: HeLa; test: Induction of apoptosis in human HeLa cells assessed as late apoptotic cells at 0.5 uM after 48 hrs by annexin-v-PI staining based flow cytometry (reference value: 0.08%); assay type: functional
smiles,measurement,setting,value
COc1ccc(/C=C2\Cc3c(cc(OC)c(OC)c3OC)C2=O)cc1,GI50,[1],0.75 µM
same,GI50,[2],0.273 µM
same,GI50,[3],0.56 µM
same,GI50,[4],0.485 µM
same,GI50,[5],0.429 µM
same,IC50,[6],9.62 µM
COc1ccc(/C=C2\Cc3c(cc(OC)c(OC)c3OC)C2=O)cc1Br,GI50,[1],0.389 µM
same,GI50,[2],0.41 µM
same,GI50,[3],0.563 µM
same,GI50,[4],0.356 µM
same,GI50,[5],0.678 µM
same,IC50,[6],9.05 µM
COc1cc(/C=C2\Cc3cc(OC)c(OC)c(OC)c3C2=O)cc(OC)c1OC,GI50,[1],> 10 µM
same,GI50,[2],> 10 µM
same,GI50,[3],> 10 µM
same,GI50,[4],> 10 µM
same,GI50,[5],> 10 µM
COc1ccc(/C=C2\Cc3cc(OC)c(OC)c(OC)c3C2=O)cc1O,GI50,[1],> 10 µM
same,GI50,[2],> 10 µM
same,GI50,[3],> 10 µM
same,GI50,[4],> 10 µM
same,GI50,[5],> 10 µM
COc1ccc(/C=C2\Cc3c(cc(OC)c(OC)c3OC)C2=O)cc1OC,GI50,[1],7.47 µM
same,GI50,[2],9.74 µM
same,GI50,[3],10.5 µM
same,GI50,[4],8.56 µM
same,GI50,[5],9.85 µM
COc1cc(/C=C2\Cc3c(cc(OC)c(OC)c3OC)C2=O)cc(OC)c1OC,GI50,[1],4.99 µM
same,GI50,[2],2.79 µM
same,GI50,[3],1.58 µM
same,GI50,[4],2.37 µM
same,GI50,[5],5.84 µM
COc1ccc(/C=C2\CCc3c(cc(OC)c(OC)c3OC)C2=O)cc1F,GI50,[1],27.6 µM
same,GI50,[2],15.4 µM
same,GI50,[3],19.3 µM
same,GI50,[4],10.2 µM
same,GI50,[5],29.4 µM
COc1cc2c(cc1O)C(=O)/C(=C/c1ccc(OC)c(OC)c1OC)C2,GI50,[1],3.14 µM
same,GI50,[2],3.42 µM
same,GI50,[3],9.65 µM
same,GI50,[4],1.59 µM
same,GI50,[5],2.41 µM
COc1ccc(/C=C2\CCc3c(cc(OC)c(OC)c3OC)C2=O)cc1,GI50,[1],19.6 µM
same,GI50,[2],18.9 µM
same,GI50,[3],25.4 µM
same,GI50,[4],12.4 µM
same,GI50,[5],38.7 µM
COc1cc2c(cc1O)C(=O)/C(=C/c1cc(OC)c(OC)c(OC)c1)C2,GI50,[1],> 10 µM
same,GI50,[2],> 10 µM
same,GI50,[3],> 10 µM
same,GI50,[4],> 10 µM
same,GI50,[5],> 10 µM
COc1ccc(/C=C2\Cc3c(cc(OC)c(OC)c3OC)C2=O)cc1N,GI50,[1],0.456 µM
same,GI50,[2],0.212 µM
same,GI50,[3],0.45 µM
same,GI50,[4],0.169 µM
same,GI50,[5],0.485 µM
same,IC50,[6],8.64 µM
COc1cc2c(c(OC)c1OC)C/C(=C\c1cc(OC)c(OC)c(OC)c1OC)C2=O,GI50,[1],> 10 µM
same,GI50,[2],> 10 µM
same,GI50,[3],> 10 µM
same,GI50,[4],> 10 µM
same,GI50,[5],> 10 µM
COc1cc2c(cc1OC)C(=O)/C(=C/c1cc(OC)c(OC)c(OC)c1)C2,GI50,[1],> 10 µM
same,GI50,[2],> 10 µM
same,GI50,[3],> 10 µM
same,GI50,[4],> 10 µM
same,GI50,[5],> 10 µM
COc1ccc(/C=C2\Cc3c(cc(OC)c(OC)c3OC)C2=O)cc1[N+](=O)[O-],GI50,[1],1.56 µM
same,GI50,[2],0.77 µM
same,GI50,[3],0.95 µM
same,GI50,[4],0.79 µM
same,GI50,[5],3.49 µM
COc1ccc(/C=C2\Cc3c(cc(OC)c(OC)c3OC)C2=O)cc1O,GI50,[1],0.213 µM
same,Activity,[7],35.2%
same,Activity,[8],19%
same,Activity,[9],42.4%
same,Activity,[10],Dose-dependent effect
same,Activity,[11],Active
same,Activity,[12],4.4%
same,Activity,[13],2.57%
same,viability at 0.5 µM,[14],40.6%
same,Activity,[15],1.03%
same,Activity,[16],0.38%
same,viability at 0.1 µM,[17],77.4%
same,GI50,[2],0.249 µM
same,GI50,[3],0.307 µM
same,Activity,[18],0.82%
same,Activity,[19],Active
same,Activity,[20],23.2%
same,Activity,[21],Dose-dependent effect
same,viability at 0.05 µM,[22],91.8%
same,Activity,[23],6.98%
same,GI50,[4],0.172 µM
same,Activity,[24],Active
same,GI50,[5],0.57 µM
same,Activity,[25],46.1%
same,Activity,[26],12.6%
same,IC50,[6],7.56 µM
COc1cc2c(cc1OC)C(=O)/C(=C/c1ccc(OC)c(OC)c1OC)C2,GI50,[1],> 10 µM
same,GI50,[2],> 10 µM
same,GI50,[3],> 10 µM
same,GI50,[4],> 10 µM
same,GI50,[5],> 10 µM
COc1ccc(/C=C2\Cc3cc(OC)c(OC)c(OC)c3C2=O)cc1,GI50,[1],> 10 µM
same,GI50,[2],> 10 µM
same,GI50,[3],> 10 µM
same,GI50,[4],> 10 µM
same,GI50,[5],> 10 µM
COc1ccc(/C=C2\Cc3cc(OC)c(OC)c(OC)c3C2=O)cc1[N+](=O)[O-],GI50,[1],> 10 µM
same,GI50,[2],> 10 µM
same,GI50,[3],> 10 µM
same,GI50,[4],> 10 µM
same,GI50,[5],> 10 µM
COc1ccc(/C=C\c2cc(OC)c(OC)c(OC)c2)cc1O [COMBRETASTATIN A4],GI50,[1],0.014 µM
same,GI50,[2],0.018 µM
same,GI50,[3],0.012 µM
same,GI50,[4],0.0028 µM
same,GI50,[5],0.021 µM
COc1ccc(/C=C2\Cc3c(cc(OC)c(OC)c3OC)C2=O)cc1F,GI50,[1],0.277 µM
same,GI50,[2],0.298 µM
same,GI50,[3],0.491 µM
same,GI50,[4],0.258 µM
same,GI50,[5],0.521 µM
same,IC50,[6],8.92 µM
COc1ccc(/C=C2\Cc3cc(OC)c(OC)c(OC)c3C2=O)cc1N,GI50,[1],> 10 µM
same,GI50,[2],> 10 µM
same,GI50,[3],> 10 µM
same,GI50,[4],> 10 µM
same,GI50,[5],> 10 µM
